# Key:
# [1] = system: Mycobacterium tuberculosis; assay: Antimycobacterial activity against non replicating Mycobacterium tuberculosis by broth dilution method; type: functional
# [2] = system: Mycobacterium tuberculosis; assay: Antimycobacterial activity against Mycobacterium tuberculosis H37Rv ATCC 27294 by broth dilution method; type: functional
# [3] = system: J774; assay: Cytotoxicity against mouse J774 cells incubated for 24 hrs by MTT assay; type: toxicity, cell-based; conditions: j774, 24 h
# [4] = system: Mycobacterium tuberculosis; assay: Antimycobacterial activity against Mycobacterium tuberculosis H37Rv incubated for 2 weeks; type: functional; conditions: 336 h
# [5] = system: Mycobacterium tuberculosis; assay: Antimycobacterial activity against Mycobacterium tuberculosis H37Rv incubated for 3 weeks; type: functional; conditions: 504 h
# [6] = system: Mycobacterium tuberculosis; assay: Antimycobacterial activity against Mycobacterium tuberculosis H37Rv incubated for 4 weeks; type: functional; conditions: 672 h
# [7] = system: Mycobacterium tuberculosis; assay: Antimycobacterial activity against Mycobacterium tuberculosis H37Rv incubated for 5 weeks; type: functional; conditions: 840 h
# [8] = system: Mycobacterium tuberculosis; assay: Antitubercular activity against Mycobacterium tuberculosis H37Rv assessed as inhibition of bacterial growth by alamar blue assay; type: functional
# [9] = system: Mycobacterium tuberculosis; assay: Antimycobacterial activity against Mycobacterium tuberculosis H37Rv assessed as inhibition of bacterial growth incubated for 5 days by alamar blue assay; type: functional; conditions: 120 h, time 5 day
SMILES,MIC [4] [µg/mL],MIC [5] [µg/mL],MIC [6] [µg/mL],MIC [7] [µg/mL],MIC [8] [µg/mL],other results
C[C@]1(Cn2cc(COc3cccc(Cl)c3)nn2)Cn2cc([N+](=O)[O-])nc2O1,,,,,,MIC [1]: 1 µg/mL; MIC [2]: 0.5 µg/mL; Activity [3]: > 40 µg/mL
CC(C)c1ccc(-c2cc3c(cc2F)c(=O)c(C(=O)O)cn3C(C)(C)C)cc1,2,4,4,4,,
O=C(NNC(=O)c1ccco1)c1ccncc1,,,,,12.5,
O=C(Cc1ccccc1Cl)NNC(=O)c1ccncc1,,,,,25,
CC(C)(C)CCn1cc(C(=O)O)c(=O)c2cc(F)c(-c3ccccc3)cc21,4,8,8,8,,
O=C(NNC(=O)c1cc(O)ccc1O)c1ccncc1,,,,,50,
COc1cccc(-c2cc3c(cc2F)c(=O)c(C(=O)O)cn3C(C)(C)C)c1,1,1,1,1,,
CC(Br)C(=O)NNC(=O)c1ccncc1 (stereo unspecified),,,,,50,
Cc1cccc(OCc2cn(C[C@@]3(C)Cn4cc([N+](=O)[O-])nc4O3)nn2)c1,,,,,,MIC [1]: 0.5 µg/mL; MIC [2]: 0.5 µg/mL; Activity [3]: > 40 µg/mL
O=C(NNC(=O)c1ccc(Cl)cc1)c1ccncc1,,,,,25,
O=C(/C=C/c1ccco1)NNC(=O)c1ccncc1,,,,,12.5,
O=C(NNC(=O)c1ccncc1)c1ccncc1,,,,,12.5,
O=C(NNC(=O)c1ccc(Cl)c(Cl)c1)c1ccncc1,,,,,12.5,
Cc1cc(-c2cn(C[C@@]3(C)Cn4cc([N+](=O)[O-])nc4O3)nn2)ccc1F,,,,,,MIC [1]: 4 µg/mL; MIC [2]: 2 µg/mL; Activity [3]: > 40 µg/mL
O=C(NNC(=O)C1CCNC(Br)C1)c1ccncc1 (stereo unspecified),,,,,25,
O=C(NNC(=O)c1ccc([N+](=O)[O-])cc1)c1ccncc1,,,,,25,
Cc1ccc(Nc2nn3c(O)cc(C)nc3c2C(=O)Nc2ccc(Cl)cc2)c(C)c1,,,,,,MIC [9]: 50 µg/mL
CCC(C)(C)n1cc(C(=O)O)c(=O)c2cc(F)c(-c3ccccc3)cc21,8,16,16,16,,
Nc1ccc(O)c(C(=O)NNC(=O)c2ccncc2)c1,,,,,50,
C[C@]1(Cn2cc(COc3cccc(F)c3)nn2)Cn2cc([N+](=O)[O-])nc2O1,,,,,,MIC [1]: 2 µg/mL; MIC [2]: 1 µg/mL; Activity [3]: > 40 µg/mL

SMILES,MIC [4] [µg/mL],MIC [5] [µg/mL],MIC [6] [µg/mL],MIC [7] [µg/mL],MIC [8] [µg/mL],other results
C[C@]1(Cn2cc(COc3ccccn3)nn2)Cn2cc([N+](=O)[O-])nc2O1,,,,,,MIC [1]: 2 µg/mL; MIC [2]: 1 µg/mL; Activity [3]: > 40 µg/mL
COc1ccc(NC(=O)c2c(Nc3ccccc3)nn3c(O)cc(C)nc23)cc1,,,,,,MIC [9]: 50 µg/mL
O=C(Cc1ccccc1Br)NNC(=O)c1ccncc1,,,,,25,
CC(C)(C)n1cc(C(=O)O)c(=O)c2cc(F)c(C#Cc3ccccc3)cc21,> 16,> 16,> 16,> 16,,
CC(C)(C)n1cc(C(=O)O)c(=O)c2cc(F)c(-c3ccccc3)cc21,1,2,2,2,,
Cc1cc(O)n2nc(Nc3ccc(Cl)c(Cl)c3)c(C(=O)Nc3cccc(C)c3C)c2n1,,,,,,MIC [9]: 50 µg/mL
O=C(NNS(=O)(=O)c1ccccc1)c1ccncc1,,,,,50,
Cc1ccc(S(=O)(=O)NNC(=O)c2ccncc2)cc1,,,,,25,
CCCCCCCCCCCCCCCCCC(=O)NNC(=O)c1ccncc1,,,,,50,
CC(C)(C)n1cc(C(=O)O)c(=O)c2cc(F)c(-c3ccc(F)cc3F)cc21,4,8,8,8,,
CC(C)(C)n1cc(C(=O)O)c(=O)c2cc(F)c(-c3cccnc3)cc21,0.25,0.25,0.25,0.25,,
CCOc1ccc(NC(=O)c2c(Nc3ccc(C)cc3C)nn3c(O)cc(C)nc23)cc1,,,,,,MIC [9]: 50 µg/mL
Cc1cc(O)n2nc(Nc3ccccc3)c(C(=O)Nc3ccccc3)c2n1,,,,,,MIC [9]: 50 µg/mL
CC(C)(C)n1cc(C(=O)O)c(=O)c2cc(F)c(-c3ccc(-c4ccccc4)cc3)cc21,4,4,4,4,,
CC(C)(C)n1cc(C(=O)O)c(=O)c2cc(F)c(-c3ccc(Cl)cc3)cc21,1,1,1,1,,
COc1ccc(Nc2nn3c(O)cc(C)nc3c2C(=O)Nc2ccc(F)c(Cl)c2)cc1,,,,,,MIC [9]: 25 µg/mL
CC(C)(C)n1cc(C(=O)O)c(=O)c2cc(F)c(Oc3ccccc3)cc21,8,16,16,16,,
Cc1ccc(Nc2nn3c(O)cc(C)nc3c2C(=O)Nc2ccc(F)c(Cl)c2)cc1,,,,,,MIC [9]: 12.5 µg/mL
Cc1ccc(-c2cc3c(cc2F)c(=O)c(C(=O)O)cn3C(C)(C)C)cc1,1,1,1,1,,
O=C(/C=C/c1ccccc1)NNC(=O)c1ccncc1,,,,,50,

# Reference: ChEMBL document CHEMBL5244273, “Tuberculosis: An Overview of the Immunogenic Response, Disease Progression, and Medicinal Chemistry Efforts in the Last Decade toward the Development of Potential Drugs for Extensively Drug-Resistant Tuberculosis Strains” (J Med Chem, 2021)
